PubChem BioAssay AID330 (DTP/NCI, 2004)
“And” between values parts separate entries of the source, which are not always exact repeats. Equal values may be shown once. Toxic doses and inconclusive results are not listed. The calls were made as follows: active = survival T/C of 150% or more; inactive = T/C below 125% in these data. Peptide text beside a SMILES is read from it. * marks the point of attachment. Tos = Cc1ccc(S(=O)(=O)*)cc1; Bn = c1ccc(C*)cc1

Tested on: P388 leukemia ip, CD2F1 mice, survival T/C
Assay: NCI In Vivo Anticancer Drug Screen. Data for tumor model P388 Leukemia (intraperitoneal) in CD2F1 (CDF1) mice
Details: endpoint: median survival time, higher = longer survival
Procedure, shortened: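 Mice carrying the transplanted tumor received test compound or vehicle. Survival was recorded in each group, and the value is the treated-group measurement divided by that of the vehicle-treated control group.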

[1] = dose: 60.0 mg/kg/injection, schedule: Q01DX005 (ip), vehicle: saline with Tween-80
[2] = dose: 120.0 mg/kg/injection, schedule: Q01DX005 (ip), vehicle: saline with Tween-80
[3] = dose: 50.0 mg/kg/injection, schedule: Q01DX005 (ip), vehicle: Klucel (hydroxypropylcellulose) (HPC)
[4] = dose: 100.0 mg/kg/injection, schedule: Q01DX005 (ip), vehicle: Klucel (hydroxypropylcellulose) (HPC)
[5] = dose: 200.0 mg/kg/injection, schedule: Q01DX005 (ip), vehicle: Klucel (hydroxypropylcellulose) (HPC)
[6] = dose: 50.0 mg/kg/injection, schedule: Q01DX009 (ip), vehicle: Klucel (hydroxypropylcellulose) (HPC)
[7] = dose: 100.0 mg/kg/injection, schedule: Q01DX009 (ip), vehicle: Klucel (hydroxypropylcellulose) (HPC)
[8] = dose: 50.0 mg/kg/injection, schedule: Q01DX005 (ip), vehicle: saline with Tween-80
[9] = dose: 100.0 mg/kg/injection, schedule: Q01DX005 (ip), vehicle: saline with Tween-80
[10] = dose: 200.0 mg/kg/injection, schedule: Q01DX005 (ip), vehicle: saline with Tween-80
[11] = dose: 50.0 mg/kg/injection, schedule: Q01DX009 (ip), vehicle: saline with Tween-80
[12] = dose: 100.0 mg/kg/injection, schedule: Q01DX009 (ip), vehicle: saline with Tween-80
[13] = dose: 200.0 mg/kg/injection, schedule: Q01DX009 (ip), vehicle: saline with Tween-80
[14] = dose: 400.0 mg/kg/injection, schedule: Q01DX009 (ip), vehicle: saline with Tween-80
[15] = dose: 25.0 mg/kg/injection, schedule: Q01DX005 (ip), vehicle: Klucel (hydroxypropylcellulose) (HPC)
[16] = dose: 50.0 mg/kg/injection, schedule: Q04DX003 (ip), vehicle: saline with Tween-80
[17] = dose: 100.0 mg/kg/injection, schedule: Q04DX003 (ip), vehicle: saline with Tween-80
[18] = dose: 200.0 mg/kg/injection, schedule: Q04DX003 (ip), vehicle: saline with Tween-80
[19] = dose: 200.0 mg/kg/injection, schedule: Q01DX009 (ip), vehicle: Klucel (hydroxypropylcellulose) (HPC)

Measured: T/C

CCOC(=O)c1cnc2cc3c(cc2c1N=[N+]=[N-])OCO3
inactive: [1] 95 % of control | [2] 90 % of control | dose: 240.0 mg/kg/injection, schedule: Q01DX005 (ip), vehicle: saline with Tween-80 87 % of control

O=C(O)CSc1nnc(Cc2cccc3ccccc23)n1-c1ccccc1
inactive: [3] 100 % of control | [4] 102 % of control | [5] 100 % of control

Cc1coc2c1C(OC(=O)C(C)C)C1(C)C(C)CCC(O)C1C2=O (configuration not stated)
inactive: dose: 1.56 mg/kg/injection, schedule: Q01DX009 (ip), vehicle: saline with Tween-80 100 % of control | dose: 3.13 mg/kg/injection, schedule: Q01DX009 (ip), vehicle: saline with Tween-80 96 % of control | dose: 6.25 mg/kg/injection, schedule: Q01DX009 (ip), vehicle: saline with Tween-80 93 % of control | dose: 12.5 mg/kg/injection, schedule: Q01DX009 (ip), vehicle: Klucel (hydroxypropylcellulose) (HPC) 94 % of control | dose: 12.5 mg/kg/injection, schedule: Q01DX009 (ip), vehicle: saline with Tween-80 109 % of control | [6] 97 % of control | [7] 114 % of control

Cc1ccc(S(=O)(=O)NC(CSCc2ccccc2)C(=O)NC(Cc2ccc(O)cc2)C(=O)O)cc1 (configuration not stated) (Tos-Cys(Bn)-Tyr-OH; configuration not given here)
inactive: [8] 103 % of control | [9] 99 % of control | [10] 99 % of control

Cc1cc2cc3c4c(nn5nnnc5c4c2o1)-c1ccccc1CC3
inactive: [3] 92 % of control | [4] 86 % of control | [5] 95 % of control

O=S(=O)(CCS(=O)(=O)c1ccccc1)c1ccccc1
inactive: [11] 92 % of control | [12] 92 % of control | [13] 89 % of control

CC(C)CC(CC(C)C)[N+](=O)[O-]
inactive: [8] 111 % of control | [9] 105 % of control | [10] 107 % of control

COc1cc2c(cc1O)CCCC=C2C1CCCCc2cc(O)c(OC)cc21 (configuration not stated)
inactive: [12] 104 % of control | [13] 94 % of control | [14] 91 % of control

O/N=C1/CCCCC/C1=N/O
inactive: [11] 98 % of control | [12] 100 % of control | [13] 100 % of control | [14] 107 % of control

COc1cc(OC)c2c(c1)C(C1c3cc(C)cc(O)c3C(=O)c3c(OC)cc(OC)cc31)c1cc(C)cc(O)c1C2=O (configuration not stated)
inactive: dose: 12.5 mg/kg/injection, schedule: Q01DX005 (ip), vehicle: Klucel (hydroxypropylcellulose) (HPC) 105 % of control | [15] 100 % of control | [3] 92 % of control | [4] 92 % of control | [5] 96 % of control

O=C1NC(=Nc2ccccc2)N(c2ccccc2)C1=Nc1ccccc1
inactive: [11] 88 % of control | [12] 91 % of control | [13] 86 % of control

Cc1ccc(OCCCCBr)c(Br)c1
inactive: [3] 105 % of control | [4] 101 % of control | [5] 97 % of control

O=c1[nH]c(=O)n(C2CC(O)C(CO)C2)cc1F (configuration not stated)
inactive: dose: 200.0 mg/kg/injection, schedule: Q01DX005 (ip), vehicle: saline + Tween-80 + alcohol 100 % of control | dose: 400.0 mg/kg/injection, schedule: Q01DX005 (ip), vehicle: saline + Tween-80 + alcohol 120 % of control

NCCC1CCCCN1 (configuration not stated)
inactive: dose: 50.0 mg/kg/injection, schedule: Q01DX001 (ip), vehicle: saline 95 % of control | dose: 100.0 mg/kg/injection, schedule: Q01DX001 (ip), vehicle: saline 105 % of control | dose: 200.0 mg/kg/injection, schedule: Q01DX001 (ip), vehicle: saline 105 % of control

CCCCOC(=O)c1ccccn1
inactive: [16] 95 % of control | [17] 100 % of control | [18] 95 % of control

Nc1nc2c(c(=O)[nH]1)N(C(=O)CCCCCCC(=O)N1c3c(nc(N)[nH]c3=O)NCC1CNc1ccc(C(=O)NC(CCC(=O)O)C(=O)O)cc1)C(CNc1ccc(C(=O)NC(CCC(=O)O)C(=O)O)cc1)CN2 (configuration not stated) (tested in a mixture with another compound)
inactive: [8] 100 % of control | [9] 96 % of control | [10] 100 % of control

CC1COn2c1nc1ccccc1c2=O (configuration not stated)
inactive: [6] 104 % of control | [7] 103 % of control | [19] 104 % of control

CCNCc1cc(Nc2nc(NC3CCC(N(C)C)CC3)c3ccccc3n2)ccc1OC (configuration not stated)
inactive: dose: 5.0 mg/kg/injection, schedule: Q01DX009 (ip), vehicle: saline sonified 100 % of control | dose: 10.0 mg/kg/injection, schedule: Q01DX009 (ip), vehicle: saline sonified 109 % of control | dose: 20.0 mg/kg/injection, schedule: Q01DX009 (ip), vehicle: saline sonified 113 % of control

C=C(C)C1CCC2(C)CC3C(=C)CC(O)C(O)C3(C)CCC12 (configuration not stated)
inactive: dose: 4.0 mg/kg/injection, schedule: Q01DX009 (ip), vehicle: Klucel (hydroxypropylcellulose) (HPC) 104 % of control | dose: 8.0 mg/kg/injection, schedule: Q01DX009 (ip), vehicle: Klucel (hydroxypropylcellulose) (HPC) 101 % of control | dose: 16.0 mg/kg/injection, schedule: Q01DX009 (ip), vehicle: Klucel (hydroxypropylcellulose) (HPC) 101 % of control | dose: 32.0 mg/kg/injection, schedule: Q01DX009 (ip), vehicle: Klucel (hydroxypropylcellulose) (HPC) 104 % of control

O=S(=O)(c1ccc(NC(=S)NCc2ccncc2)cc1)N1CCCCC1
inactive: [6] 97 % of control | [7] 95 % of control | [19] 98 % of control

Nc1ncnc2[nH]c(=O)[nH]c12
inactive: dose: 25.0 mg/kg/injection, schedule: Q04DX003 (ip), vehicle: saline 95 % of control | dose: 50.0 mg/kg/injection, schedule: Q04DX003 (ip), vehicle: saline 104 % of control | dose: 100.0 mg/kg/injection, schedule: Q04DX003 (ip), vehicle: saline 104 % of control

COC(c1cccc(C(OC)(C(F)(F)F)C(F)(F)F)c1)(C(F)(F)F)C(F)(F)F
inactive: [15] 101 % of control | [3] 96 % of control | [4] 103 % of control | [5] 90 % of control

CC1CCCCN1C(=S)Nc1ccc(S(=O)(=O)N2CCCCC2)cc1 (configuration not stated)
inactive: [6] 94 % of control | [7] 101 % of control | [19] 92 % of control

Cn1c(=O)[nH]c(Sc2ccccc2)c(C=O)c1=O
inactive: dose: 100.0 mg/kg/injection, schedule: Q01DX001 (ip), vehicle: saline with Tween-80 104 % of control | dose: 200.0 mg/kg/injection, schedule: Q01DX001 (ip), vehicle: saline with Tween-80 101 % of control

O=S1(=O)N=C(Sc2nc3ccccc3o2)c2ccccc21
inactive: dose: 100.0 mg/kg/injection, schedule: Q04DX002 (ip), vehicle: saline with Tween-80 102 % of control | dose: 200.0 mg/kg/injection, schedule: Q04DX002 (ip), vehicle: saline with Tween-80 107 % of control | dose: 400.0 mg/kg/injection, schedule: Q04DX002 (ip), vehicle: saline with Tween-80 115 % of control

COC(=O)CN(CCCl)P1(=O)OCCCN1CCCl (configuration not stated)
inactive: [1] 97 % of control | [2] 108 % of control

CC12CC3CC(C1)CC(Br)(C3)C2
inactive: [6] 103 % of control and 111 % of control | [7] 100 % of control | [19] 100 % of control

NCCCN1c2ccccc2Sc2ccc(Cl)cc21
inactive: dose: 25.0 mg/kg/injection, schedule: Q01DX009 (ip), vehicle: saline with Tween-80 99 % of control and 90 % of control | [11] 113 % of control and 120 % of control

O=C1NC(CCCl)C(=O)NC1CCCl (configuration not stated)
inactive: [8] 96 % of control | [11] 110 % of control | [16] 95 % of control | [9] 100 % of control | [12] 95 % of control | [17] 100 % of control | [10] 100 % of control | [13] 110 % of control | [18] 100 % of control

CC1(C)OC2OC(/C=N\NC(=O)c3cc4cc(OCc5ccccc5)ccc4[nH]3)C3OC(C)(C)OC3C2O1 (configuration not stated)
inactive: [3] 102 % of control | [4] 104 % of control | [5] 102 % of control

CCOC(=O)c1cnc2cc3c(cc2c1Nc1ccccc1C(=O)OC)OCO3
inactive: dose: 50.0 mg/kg/injection, schedule: Q04DX002 (ip), vehicle: Klucel (hydroxypropylcellulose) (HPC) 101 % of control | dose: 100.0 mg/kg/injection, schedule: Q04DX002 (ip), vehicle: Klucel (hydroxypropylcellulose) (HPC) 101 % of control | dose: 200.0 mg/kg/injection, schedule: Q04DX002 (ip), vehicle: Klucel (hydroxypropylcellulose) (HPC) 97 % of control

COc1cc(NCCCCCNC(C)C)c2ncccc2c1
inactive: dose: 12.5 mg/kg/injection, schedule: Q01DX005 (ip), vehicle: saline with Tween-80 103 % of control | dose: 25.0 mg/kg/injection, schedule: Q01DX005 (ip), vehicle: saline with Tween-80 113 % of control | [8] 100 % of control
